Experimental data taken from ChEMBL document CHEMBL3792297, “Studies on phenothiazines: New microtubule-interacting compounds with phenothiazine A-ring as potent antineoplastic agents” (Bioorg Med Chem, 2016).

Experiments:
Type in all cases: functional
U-251 = test: Growth inhibition of human U251 cells after 48 hrs by SRB assay; conditions: U-251, 48 h
SK-MEL-28 = test: Growth inhibition of human SK-MEL-28 cells after 48 hrs by SRB assay; conditions: SK-MEL-28, 48 h
HT-29 = test: Growth inhibition of human HT-29 cells after 48 hrs by SRB assay; conditions: HT-29, 48 h
Malme-3M = test: Growth inhibition of human MALME-3M cells after 48 hrs by SRB assay
[1] = Growth inhibition of human BT549 cells after 48 hrs by SRB assay; conditions: BT-549, 48 h
786-0 = test: Growth inhibition of human 786-0 cells after 48 hrs by SRB assay; conditions: 786-0, 48 h
[2] = Growth inhibition of human LOXIMVI cells after 48 hrs by SRB assay; conditions: LOX IMVI
[3] = Growth inhibition of human MOLT4 cells after 48 hrs by SRB assay; conditions: MOLT-4, 48 h
[4] = Growth inhibition of human RPMI8226 cells after 48 hrs by SRB assay; conditions: RPMI-8226, 48 h
[5] = Growth inhibition of human DU145 cells after 48 hrs by SRB assay; conditions: DU-145, 48 h
SN12C = test: Growth inhibition of human SN12C cells after 48 hrs by SRB assay
MDA-MB-468 = test: Growth inhibition of human MDA-MB-468 cells after 48 hrs by SRB assay; conditions: MDA-MB-468, 48 h
A549 = test: Growth inhibition of human A549 cells after 48 hrs by SRB assay; conditions: A549, 48 h
CCRF-CEM = test: Growth inhibition of human CCRF-CEM cells after 48 hrs by SRB assay
[6] = Growth inhibition of human RXF393 cells after 48 hrs by SRB assay; conditions: RXF 393, 48 h
KM12 = test: Growth inhibition of human KM12 cells after 48 hrs by SRB assay; conditions: KM12, 48 h
NCI-H23 = test: Growth inhibition of human NCI-H23 cells after 48 hrs by SRB assay; conditions: NCI-H23, 48 h
ACHN = test: Growth inhibition of human ACHN cells after 48 hrs by SRB assay
[7] = Growth inhibition of human HOP92 cells after 48 hrs by SRB assay; conditions: HOP-92, 48 h
[8] = Growth inhibition of human OVCAR4 cells after 48 hrs by SRB assay; conditions: OVCAR-4, 48 h
[9] = Growth inhibition of human SF268 cells after 48 hrs by SRB assay; conditions: SF-268, 48 h
[10] = Growth inhibition of human IGROV1 cells after 48 hrs by SRB assay; conditions: IGROV-1, 48 h
[11] = Growth inhibition of human SNB75 cells after 48 hrs by SRB assay; conditions: SNB-75, 48 h
NCI-H460 = test: Growth inhibition of human NCI-H460 cells after 48 hrs by SRB assay; conditions: NCI-H460, 48 h
[12] = Growth inhibition of human SW620 cells after 48 hrs by SRB assay; conditions: SW-620, 48 h
[13] = Growth inhibition of human HL-60(TB) cells after 48 hrs by SRB assay; conditions: HL-60, 48 h
[14] = Growth inhibition of human UACC62 cells after 48 hrs by SRB assay; conditions: UACC-62, 48 h

Row | Compound | GI50 (U-251) [µM] | GI50 (SK-MEL-28) [µM] | GI50 (HT-29) [µM] | GI50 (Malme-3M) [µM] | GI50 [1] [µM] | GI50 [3] [µM] | GI50 [4] [µM] | GI50 [5] [µM] | GI50 (SN12C) [µM] | GI50 (MDA-MB-468) [µM] | GI50 (A549) [µM] | GI50 (CCRF-CEM) [µM] | GI50 [6] [µM] | GI50 (KM12) [µM] | GI50 (NCI-H23) [µM] | GI50 (ACHN) [µM] | GI50 [7] [µM] | GI50 [8] [µM] | GI50 [9] [µM] | GI50 [10] [µM] | further results
1 | COc1ccc(C(=O)N2c3ccccc3Sc3ccccc32)c(F)c1 | 0.615 | 1.64 | 0.38 | 16.2 | 0.676 | 0.715 | 0.921 | 1.4 | 1.94 | 0.413 | 1.19 | 0.522 | 0.764 | 0.489 | 3.42 | 0.831 | 0.238 | 2.01 | 10.1 | 0.807 | GI50 (786-0): 0.675 µM; GI50 [2]: 0.727 µM; GI50 [11]: 0.288 µM; GI50 (NCI-H460): 0.485 µM; GI50 [12]: 0.458 µM; GI50 [13]: 0.325 µM; GI50 [14]: 0.382 µM
2 | COc1ccc(C(=O)N2c3ccccc3Sc3ccccc32)c(C(F)(F)F)c1 | 0.5 | 9.17 | 0.362 | 25.8 | 0.892 | 0.406 | 0.595 | 0.433 | 1.3 | 0.364 | 0.515 | 0.088 | 0.362 | 0.413 | 0.578 | 1.33 | 0.152 | 1.98 | 3.04 | 2.2 | GI50 [2]: 0.516 µM; GI50 [11]: 0.264 µM; GI50 (NCI-H460): 0.383 µM; GI50 [12]: 0.425 µM; GI50 [13]: 0.252 µM; GI50 [14]: 0.438 µM
3 | COc1ccc(C(=O)N2c3ccccc3Sc3ccccc32)c(OC)c1 | 0.615 | 0.942 | 0.385 | 0.416 | 0.659 | 0.447 | 0.523 | 0.491 | 0.586 | 0.327 | 0.785 | 0.394 | 0.413 | 0.438 | 0.776 | 0.726 | 0.374 | 3.17 | 0.853 | 0.926 | GI50 (786-0): 0.48 µM; GI50 [2]: 0.601 µM; GI50 [11]: 0.209 µM; GI50 (NCI-H460): 0.406 µM; GI50 [12]: 0.412 µM; GI50 [13]: 0.297 µM; GI50 [14]: 0.321 µM
4 | COc1ccc(C(=O)N2c3ccccc3Sc3ccccc32)cc1F | 0.353 | 0.32 | 0.283 | 0.365 | 0.439 | 0.323 | 0.336 | 3.61 | 0.525 | 0.231 | 0.344 | 0.287 | 0.211 | 0.203 | 0.34 | 1.05 | 1.13 | 1.45 | 0.799 | 0.566 | GI50 (786-0): 0.609 µM; GI50 [2]: 0.672 µM; GI50 [11]: 0.27 µM; GI50 (NCI-H460): 0.34 µM; GI50 [12]: 0.282 µM; GI50 [13]: 0.305 µM; GI50 [14]: 0.128 µM
5 | O=C(c1ccc2c(c1)Sc1ccccc1N2)c1c[nH]c2ccccc12 | 0.413 | 0.63 | 0.358 | 0.532 | 0.366 | 0.642 | 0.428 | 0.679 | 0.708 | 0.301 | 0.592 | 0.328 | 0.51 | 0.311 | 0.389 | 0.671 | 0.585 | 4.11 | 0.798 | 0.683 | GI50 (786-0): 0.672 µM; GI50 [11]: 0.249 µM; GI50 (NCI-H460): 0.347 µM; GI50 [12]: 0.293 µM; GI50 [13]: 0.398 µM; GI50 [14]: 0.356 µM
